Data reported in patent publication US7803842B2, “Choline esters useful for the treatment of cognitive dysfunctions and enhancement of memory, learning and cognition” (priority 2004, dated 2010).
Entries after “also recorded” stand apart in the source; their conditions may differ. Counter-ions that a name gives are not always drawn.

Tests used:
[1] = system: scopolamine impaired rats; test: Water maze hidden platform task in scopolamine impaired rats; type: in vivo, Long Evans rats; settings: for Hidden platform task performance (latency, swim path length) vs saline controls; reversal of scopolamine effect: donepezil 0.75 mg/kg p.o. daily with scopolamine 0.1 mg/kg i.p., test days 3 and 4, hydrochloride
Procedure: (§1) Male Long-Evans rats (3 months of age) were administered either saline, donepezil (0.75 mg/kg), or PP-100 (3.0 mg/kg or 40.0 mg/kg) by oral gavage for 10 days prior to (and during the 5 days of) testing in a water maze task. The compounds were evaluated for their ability to reverse the amnestic effects of scopolamine (0.1 mg/kg) in this task.
The animals were randomly assigned to one of 5 groups (n=10/group) and administered one daily dose of either of two doses of the choline derivative PP-100 (3 or 40 mg/kg), donepezil HCL (0.75 mg/kg), or vehicle (0.9% saline), via oral gavage (p.o.) beginning ten days prior to initiation of the water maze task. Daily dosing continued through the initial day of visible platform testing and the subsequent five days of water maze testing (i.e., on hidden platform test days as well as probe trial days). On both the single day of pre-testing (Visible Platform Test) as well as on each day of watermaze testing, thirty minutes prior to the first trial, 0.1 mg/kg of scopolamine hydrobromide was administered i.p. to four of the five groups (i.e., excluding the saline-saline group). Fifteen minutes after the scopolamine injection (or vehicle) each group was dosed with one of the test articles or vehicle (see Table 1 for an overview of the testing protocol). Test articles were prepared according to the supplied instructions, and aliquots of the solutions were stored (at −20° C.). Test agents were freshly thawed at the time of use.
In order to test and compare the effects of PP-100 on both acquisition and recall of spatial memories, the water maze hidden platform task was utilized. […] Scopolamine is known to impair performance in the water maze task, and blockage of scopolamine effects is known to reduce impairment in the water maze (e.g., Terry et al., Drug Dev. Res., 47:97 (1999).
The water maze experiment was performed in a circular pool (diameter=180 cm, height=76 cm) made of black plastic. The pool was filled with water to a depth of 35 cm and the water was maintained at 25.0±1.0° C. The pool was located in a large room with a number of extra-maze visual cues including geometric images (squares, triangles, circles etc.) hung on the wall, diffuse lighting, and black curtains used to hide the experimenter (visually) and the resting test subjects. Swimming activity of each rat was monitored via a television camera mounted overhead, which relayed information including latency to find the platform, total distance traveled, time and distance spent in each quadrant etc. to a video tracking system (Actimetrics, Evanston, Ill.).
For the water maze test itself, the escape platform was submerged. […]

[2] = system: scopolamine impaired rats; test: Water maze visible platform task (pre-test) in scopolamine impaired rats; type: in vivo, Long Evans rats; settings: scopolamine 0.1 mg/kg i.p.; hydrobromide
Procedure: as §1
The animals were randomly assigned to one of 5 groups (n=10/group) and administered one daily dose of either of two doses of the choline derivative PP-100 (3 or 40 mg/kg), donepezil HCL (0.75 mg/kg), or vehicle (0.9% saline), via oral gavage (p.o.) beginning ten days prior to initiation of the water maze task. Daily dosing continued through the initial day of visible platform testing and the subsequent five days of water maze testing (i.e., on hidden platform test days as well as probe trial days). […]
The water maze experiment was performed in a circular pool (diameter=180 cm, height=76 cm) made of black plastic. […] Swimming activity of each rat was monitored via a television camera mounted overhead, which relayed information including latency to find the platform, total distance traveled, time and distance spent in each quadrant etc. to a video tracking system (Actimetrics, Evanston, Ill.). […]

Compound	Hidden platform task performance (latency, swim path length) vs saline controls; reversal of scopolamine effect [1]	Hidden platform task performance (latency, swim path length) vs saline controls; reversal of scopolamine effect ([1]; listed as Donepezil)	Hidden platform task performance vs saline controls ([1]; with scopolamine 0.1 mg/kg i.p., donepezil 0.75 mg/kg or PP-100 3 or 40 mg/kg p.o., test days 1 and 2)	Effect on learning in the hidden platform task (latency, swim distance) ([1]; scopolamine 0.1 mg/kg i.p. 30 minutes before first trial)	Effect on ability to locate a highly visible platform [2]
COc1cc2c(cc1OC)C(=O)C(CC1CCN(Cc3ccccc3)CC1)C2 (racemic) [donepezil, (±)-2-[(1-benzyl-4-piperidyl)methyl]-5,6-dimethoxy-1-indanone hydrochloride]	did not differ (statistically) from saline controls	appeared to at least partially reverse the effects of scopolamine	generally performed less efficiently than saline controls		
CN1[C@@H]2C[C@@H](OC(=O)[C@H](CO)c3ccccc3)C[C@H]1[C@@H]1O[C@@H]12 [scopolamine, scopolamine hydrobromide]				impaired learning	tended to produce impairment; also recorded: led to some impairment
